The record followed here is ChEMBL document CHEMBL3045415, “Synthesis, characterization and antimicrobial activities of some novel bis-chalcones” (2012).

The MIC is the least concentration at which growth counts as inhibited.

Holding throughout (format): functional
Assay [1] concerns Candida albicans. Briefly: Antifungal activity against Candida albicans ATCC 10231 after 24 hr by disk diffusion method. The settings on record: ATCC 10231, 24 h. (Agar diffusion results depend on both activity and mobility in agar.)
In assay [2] the test system is Escherichia coli. Briefly: Antibacterial activity against Escherichia coli ATCC 35218 after 24 hr by disk diffusion method. Particulars: ATCC 35218, 24 h.
Assay [3] concerns Candida albicans. The assay can be described thus: Antifungal activity against Candida albicans ATCC 10231 at 400 ug/ml after 24 hr by cup-plate agar method. The settings on record: for zone of inhibition at 400 µg/mL: ATCC 10231, 24 h, read-out: IZ.
The subject of assay [4] is Escherichia coli. The assay can be described thus: Antibacterial activity against Escherichia coli ATCC 35218 at 400 ug/ml after 24 hr by cup-plate agar method. The settings on record: for zone of inhibition at 400 µg/mL: ATCC 35218, 24 h, read-out: IZ.
For assay [5], the system named is Staphylococcus aureus. Briefly: Antibacterial activity against Staphylococcus aureus ATCC 29737 at 400 ug/ml after 24 hr by cup-plate agar method. Particulars: for zone of inhibition at 400 µg/mL: ATCC 29737, 24 h, read-out: IZ.
Assay [6] deals with Staphylococcus aureus. The assay can be described thus: Antibacterial activity against Staphylococcus aureus ATCC 29737 after 24 hr by disk diffusion method. The settings on record: ATCC 29737, 24 h.

In brackets after ≈: the same amount, converted by molar mass. Activity calls are given as the source filed them. The calls are words filed in the database; no cut-off is given here.

In the case of `O=C(/C=C/c1cccc(Br)c1)c1ccc(C(=O)/C=C/c2cccc(Br)c2)cc1`, the values for the MIC in the assay with Candida albicans [1] and against Escherichia coli [2] were 200 µg/mL (≈ 403 µM) and 50 µg/mL (≈ 101 µM), respectively. Also, the “inhibition zone (IZ)” value in the assay on Candida albicans [3] was “inactive”. Besides, the values for the zone of inhibition at 400 µg/mL with Escherichia coli [4] and with Staphylococcus aureus [5] were 30 mm and 10 mm, respectively.

Take `O=C(/C=C/c1ccc(Cl)cc1)c1ccc(C(=O)/C=C/c2ccc(Cl)cc2)cc1`: the MIC against Candida albicans [1] turned out to be 200 µg/mL (≈ 491 µM); in the assay with Escherichia coli [2] it was 100 µg/mL (≈ 246 µM); in the assay with Staphylococcus aureus [6], 200 µg/mL (≈ 491 µM). Further, the zone of inhibition at 400 µg/mL with Candida albicans [3] was 12 mm; with Escherichia coli [4] it was 23 mm; with Staphylococcus aureus [5] it was 10 mm.

Regarding `O=C(/C=C/c1ccccc1)c1ccc(C(=O)/C=C/c2ccccc2)cc1`, the minimal inhibitory concentration (MIC) against Candida albicans [1], against Escherichia coli [2] and in the assay with Staphylococcus aureus [6] was 200 µg/mL (≈ 591 µM) in each case. The results for the zone of inhibition at 400 µg/mL in the assay on Candida albicans [3], in the assay on Escherichia coli [4] and in the assay on Staphylococcus aureus [5] were 17 mm, 13 mm and 10 mm, respectively.

For the molecule `O=C(/C=C/c1cccc([N+](=O)[O-])c1)c1ccc(C(=O)/C=C/c2cccc([N+](=O)[O-])c2)cc1`, the “inhibition zone (IZ)” value in the assay with Candida albicans [3], in the assay on Escherichia coli [4] and in the assay with Staphylococcus aureus [5] was “inactive” each time.

With `O=C(/C=C/c1ccccc1Cl)c1ccc(C(=O)/C=C/c2ccccc2Cl)cc1`, the minimal inhibitory concentration (MIC) was 100 µg/mL (≈ 246 µM) against Candida albicans [1], 100 µg/mL (≈ 246 µM) with Escherichia coli [2] and 200 µg/mL (≈ 491 µM) in the assay on Staphylococcus aureus [6]. Besides, the zone of inhibition at 400 µg/mL with Candida albicans [3] stood at 12 mm; in the assay with Escherichia coli [4] it was 27 mm; in the assay with Staphylococcus aureus [5], 10 mm.

In the assay on Staphylococcus aureus [6], `COc1ccc(/C=C/C(=O)c2ccc(C(=O)/C=C/c3ccc(OO)cc3)cc2)cc1` returned an MIC of 300 µg/mL (≈ 749 µM). Moreover, the zone of inhibition at 400 µg/mL in the assay on Candida albicans [3] amounted to 22 mm. Also, the “inhibition zone (IZ)” value with Escherichia coli [4] and in the assay with Staphylococcus aureus [5] was “inactive” each time.

For `O=C(/C=C/c1ccccc1O)c1ccc(C(=O)/C=C/c2ccccc2O)cc1`, the figures for the MIC in the assay with Candida albicans [1] and with Escherichia coli [2] were 100 µg/mL (≈ 270 µM) and 50 µg/mL (≈ 135 µM), respectively. Besides, the “inhibition zone (IZ)” value in the assay on Candida albicans [3] was “inactive”. Also, the zone of inhibition at 400 µg/mL in the assay on Escherichia coli [4] amounted to 30 mm; in the assay with Staphylococcus aureus [5], 13 mm.

Consider `O=C(/C=C/c1cccc(Cl)c1)c1ccc(C(=O)/C=C/c2cccc(Cl)c2)cc1`, for which the minimum inhibitory concentration (MIC) against Escherichia coli [2] and against Staphylococcus aureus [6] was 300 µg/mL (≈ 737 µM) throughout. The zone of inhibition at 400 µg/mL worked out at 12 mm with Candida albicans [3] and 13 mm in the assay with Escherichia coli [4]. Moreover, in the assay with Staphylococcus aureus [5], the “inhibition zone (IZ)” value was “inactive”.

As to `O=C(/C=C/c1ccc([N+](=O)[O-])cc1)c1ccc(C(=O)/C=C/c2ccc([N+](=O)[O-])cc2)cc1`, the MIC against Candida albicans [1] is 200 µg/mL (≈ 467 µM); with Escherichia coli [2] it was 50 µg/mL (≈ 117 µM); in the assay with Staphylococcus aureus [6] it was 50 µg/mL (≈ 117 µM). Moreover, the values for the zone of inhibition at 400 µg/mL with Candida albicans [3], with Escherichia coli [4] and in the assay with Staphylococcus aureus [5] were 25 mm, 13 mm and 10 mm, respectively.

As for `O=C(/C=C/c1ccccc1[N+](=O)[O-])c1ccc(C(=O)/C=C/c2ccccc2[N+](=O)[O-])cc1`, the MIC in the assay with Candida albicans [1], in the assay with Escherichia coli [2] and with Staphylococcus aureus [6] was 100 µg/mL (≈ 233 µM) in each case. For the same molecule, the zone of inhibition at 400 µg/mL with Candida albicans [3] was found to be 15 mm; in the assay with Escherichia coli [4], 21 mm; in the assay on Staphylococcus aureus [5], 15 mm.

For `COc1ccccc1/C=C/C(=O)c1ccc(C(=O)/C=C/c2ccccc2OC)cc1`, the MIC in the assay with Staphylococcus aureus [6] is 300 µg/mL (≈ 753 µM). In addition, the zone of inhibition at 400 µg/mL with Candida albicans [3] worked out at 9 mm. The “inhibition zone (IZ)” value with Escherichia coli [4] and in the assay on Staphylococcus aureus [5] was “inactive” each time.

`COc1cccc(/C=C/C(=O)c2ccc(C(=O)/C=C/c3cccc(OC)c3)cc2)c1`: the “inhibition zone (IZ)” value in the assay on Candida albicans [3], in the assay on Escherichia coli [4] and in the assay on Staphylococcus aureus [5] was “inactive” each time.

Take `O=C(/C=C/c1ccc(Br)cc1)c1ccc(C(=O)/C=C/c2ccc(Br)cc2)cc1`: the MIC is 200 µg/mL (≈ 403 µM) in the assay on Candida albicans [1] and 50 µg/mL (≈ 101 µM) against Escherichia coli [2]. Further, the “inhibition zone (IZ)” value with Candida albicans [3] was “inactive”. The zone of inhibition at 400 µg/mL in the assay on Escherichia coli [4] was determined as 30 mm; in the assay on Staphylococcus aureus [5], 9 mm.

On to `C[C@@H]1[C@H](O)[C@@H](C)/C=C/C=C/C=C/C=C/C=C/C=C/C=C/[C@H](O[C@@H]2O[C@H](C)[C@@H](O)[C@H](N)[C@@H]2O)C[C@@H]2O[C@](O)(C[C@@H](O)C[C@@H](O)[C@H](O)CC[C@@H](O)C[C@@H](O)CC(=O)O[C@H]1C)C[C@H](O)[C@H]2C(=O)O` [AMPHOTERICIN B], for which the zone of inhibition at 400 µg/mL in the assay with Candida albicans [3] turned out to be 21 mm.

GENTAMICIN: the inhibition zone (IZ) in the assay on Escherichia coli [4] was 24 mm; in the assay with Staphylococcus aureus [5], 23 mm.

For `COc1ccc(/C=C/C(=O)c2ccc(C(=O)/C=C/c3ccc(OC)c(OC)c3)cc2)cc1OC`, the MIC in the assay on Candida albicans [1] was found to be 200 µg/mL (≈ 436 µM); with Escherichia coli [2] it was 100 µg/mL (≈ 218 µM). In the assay with Candida albicans [3], the “inhibition zone (IZ)” value is “inactive”. Also, the zone of inhibition at 400 µg/mL in the assay with Escherichia coli [4] was 30 mm; in the assay on Staphylococcus aureus [5], 11 mm.
